Laboratory results reported in the NIST ThermoML archive (doi:10.1007/s10765-009-0602-6).
Values joined by “and” are separate entries in the source; they are usually repeats but may differ in a detail not shown here. Identical values can stand only once.

Assay: molar heat capacity at constant volume; xn = mol fraction of the nth substance listed
Settings: x1 = 0.2607

N [ammonia] + O
Settings	molar heat capacity at constant volume
601.54 K, Fluid (supercritical or subcritical phases), Mass density=301.94 kg/m3, isochoric heat capacity	93.57 J/K/mol
601.55 K, Fluid (supercritical or subcritical phases), Mass density=291.16 kg/m3, isochoric heat capacity	90.62 J/K/mol
601.56 K, Fluid (supercritical or subcritical phases), Mass density=188.05 kg/m3, isochoric heat capacity	61.55 J/K/mol
601.62 K, Fluid (supercritical or subcritical phases), Mass density=285.71 kg/m3, isochoric heat capacity	88.9 J/K/mol
601.63 K, Fluid (supercritical or subcritical phases), Mass density=299.79 kg/m3, isochoric heat capacity	98.44 J/K/mol
601.66 K, Fluid (supercritical or subcritical phases), Mass density=294.44 kg/m3, isochoric heat capacity	99.98 J/K/mol
601.71 K, Fluid (supercritical or subcritical phases), Mass density=285.71 kg/m3, isochoric heat capacity	87.96 J/K/mol
601.71 K, Fluid (supercritical or subcritical phases), Mass density=299.79 kg/m3, isochoric heat capacity	95.13 J/K/mol
601.75 K, Fluid (supercritical or subcritical phases), Mass density=188.05 kg/m3, isochoric heat capacity	64.8 J/K/mol
601.75 K, Fluid (supercritical or subcritical phases), Mass density=195.99 kg/m3, isochoric heat capacity	103.89 J/K/mol
601.75 K, Liquid, Isochoric heat capacity	103.89 J/K/mol
601.79 K, Fluid (supercritical or subcritical phases), Mass density=195.99 kg/m3, isochoric heat capacity	94.8 J/K/mol
601.82 K, Fluid (supercritical or subcritical phases), Mass density=294.44 kg/m3, isochoric heat capacity	98.74 J/K/mol
601.88 K, Fluid (supercritical or subcritical phases), Mass density=376.89 kg/m3, isochoric heat capacity	79.03 J/K/mol
601.89 K, Fluid (supercritical or subcritical phases), Mass density=195.99 kg/m3, isochoric heat capacity	87.6 J/K/mol
601.97 K, Fluid (supercritical or subcritical phases), Mass density=297.6 kg/m3, isochoric heat capacity	100.3 J/K/mol
601.97 K, Fluid (supercritical or subcritical phases), Mass density=376.89 kg/m3, isochoric heat capacity	76.68 J/K/mol
601.98 K, Fluid (supercritical or subcritical phases), Mass density=195.99 kg/m3, isochoric heat capacity	77.82 J/K/mol
602.05 K, Fluid (supercritical or subcritical phases), Mass density=271.09 kg/m3, isochoric heat capacity	106.73 J/K/mol
602.05 K, Fluid (supercritical or subcritical phases), Mass density=376.89 kg/m3, isochoric heat capacity	80.09 J/K/mol
602.05 K, Liquid, Isochoric heat capacity	106.73 J/K/mol
602.08 K, Fluid (supercritical or subcritical phases), Mass density=271.09 kg/m3, isochoric heat capacity	104.24 J/K/mol
602.09 K, Fluid (supercritical or subcritical phases), Mass density=271.09 kg/m3, isochoric heat capacity	100.44 J/K/mol
602.12 K, Fluid (supercritical or subcritical phases), Mass density=271.09 kg/m3, isochoric heat capacity	96.3 J/K/mol
602.13 K, Fluid (supercritical or subcritical phases), Mass density=307.35 kg/m3, isochoric heat capacity	96.93 J/K/mol
602.14 K, Fluid (supercritical or subcritical phases), Mass density=312.91 kg/m3, isochoric heat capacity	83.15 J/K/mol
602.22 K, Fluid (supercritical or subcritical phases), Mass density=312.91 kg/m3, isochoric heat capacity	82.81 J/K/mol
602.23 K, Fluid (supercritical or subcritical phases), Mass density=307.35 kg/m3, isochoric heat capacity	92.38 J/K/mol
602.24 K, Fluid (supercritical or subcritical phases), Mass density=271.09 kg/m3, isochoric heat capacity	93.92 J/K/mol
602.26 K, Fluid (supercritical or subcritical phases), Mass density=205.58 kg/m3, isochoric heat capacity	105.31 J/K/mol
602.26 K, Liquid, Isochoric heat capacity	105.31 J/K/mol
602.3 K, Fluid (supercritical or subcritical phases), Mass density=312.91 kg/m3, isochoric heat capacity	81.1 J/K/mol
602.31 K, Fluid (supercritical or subcritical phases), Mass density=205.58 kg/m3, isochoric heat capacity	100.51 J/K/mol
602.38 K, Fluid (supercritical or subcritical phases), Mass density=271.09 kg/m3, isochoric heat capacity	89.02 J/K/mol
602.39 K, Fluid (supercritical or subcritical phases), Mass density=205.58 kg/m3, isochoric heat capacity	86.66 J/K/mol
602.39 K, Fluid (supercritical or subcritical phases), Mass density=312.91 kg/m3, isochoric heat capacity	81.72 J/K/mol
602.4 K, Fluid (supercritical or subcritical phases), Mass density=307.35 kg/m3, isochoric heat capacity	94.4 J/K/mol
602.45 K, Liquid, Isochoric heat capacity	105.13 J/K/mol
602.48 K, Fluid (supercritical or subcritical phases), Mass density=205.58 kg/m3, isochoric heat capacity	75.47 J/K/mol
602.48 K, Fluid (supercritical or subcritical phases), Mass density=243.98 kg/m3, isochoric heat capacity	100.07 J/K/mol
602.48 K, Fluid (supercritical or subcritical phases), Mass density=260.02 kg/m3, isochoric heat capacity	100.07 J/K/mol
602.48 K, Fluid (supercritical or subcritical phases), Mass density=307.35 kg/m3, isochoric heat capacity	89.36 J/K/mol
602.48 K, Fluid (supercritical or subcritical phases), Mass density=312.91 kg/m3, isochoric heat capacity	84.69 J/K/mol
602.48 K, Fluid (supercritical or subcritical phases), Mass density=342.18 kg/m3, isochoric heat capacity	86.56 J/K/mol
602.48 K, Fluid (supercritical or subcritical phases), Mass density=376.89 kg/m3, isochoric heat capacity	81.21 J/K/mol
602.48 K, Fluid (supercritical or subcritical phases), Mass density=456.58 kg/m3, isochoric heat capacity	66.2 J/K/mol
602.51 K, Fluid (supercritical or subcritical phases), Mass density=271.09 kg/m3, isochoric heat capacity	86.04 J/K/mol
602.56 K, Fluid (supercritical or subcritical phases), Mass density=205.58 kg/m3, isochoric heat capacity	77.07 J/K/mol
602.56 K, Fluid (supercritical or subcritical phases), Mass density=243.98 kg/m3, isochoric heat capacity	96.22 J/K/mol
602.56 K, Fluid (supercritical or subcritical phases), Mass density=260.02 kg/m3, isochoric heat capacity	96.22 J/K/mol
602.56 K, Fluid (supercritical or subcritical phases), Mass density=307.35 kg/m3, isochoric heat capacity	92.18 J/K/mol
602.56 K, Fluid (supercritical or subcritical phases), Mass density=342.18 kg/m3, isochoric heat capacity	87.35 J/K/mol
602.62 K, Fluid (supercritical or subcritical phases), Mass density=195.99 kg/m3, isochoric heat capacity	72.88 J/K/mol
602.65 K, Fluid (supercritical or subcritical phases), Mass density=243.98 kg/m3, isochoric heat capacity	98.1 J/K/mol
602.65 K, Fluid (supercritical or subcritical phases), Mass density=260.02 kg/m3, isochoric heat capacity	98.1 J/K/mol
602.65 K, Fluid (supercritical or subcritical phases), Mass density=376.89 kg/m3, isochoric heat capacity	81.09 J/K/mol
602.65 K, Fluid (supercritical or subcritical phases), Mass density=456.58 kg/m3, isochoric heat capacity	68.55 J/K/mol
602.74 K, Fluid (supercritical or subcritical phases), Mass density=205.58 kg/m3, isochoric heat capacity	73.93 J/K/mol
602.74 K, Fluid (supercritical or subcritical phases), Mass density=214.83 kg/m3, isochoric heat capacity	106.91 J/K/mol
602.74 K, Fluid (supercritical or subcritical phases), Mass density=243.98 kg/m3, isochoric heat capacity	94.92 J/K/mol
602.74 K, Fluid (supercritical or subcritical phases), Mass density=260.02 kg/m3, isochoric heat capacity	94.92 J/K/mol
602.74 K, Fluid (supercritical or subcritical phases), Mass density=342.18 kg/m3, isochoric heat capacity	87.43 J/K/mol
602.74 K, Fluid (supercritical or subcritical phases), Mass density=376.89 kg/m3, isochoric heat capacity	79.29 J/K/mol
602.74 K, Liquid, Isochoric heat capacity	106.91 J/K/mol
602.82 K, Fluid (supercritical or subcritical phases), Mass density=214.83 kg/m3, isochoric heat capacity	102.73 J/K/mol
602.82 K, Fluid (supercritical or subcritical phases), Mass density=456.58 kg/m3, isochoric heat capacity	67.55 J/K/mol
602.85 K, Fluid (supercritical or subcritical phases), Mass density=218.92 kg/m3, isochoric heat capacity	108.5 J/K/mol
602.85 K, Liquid, Isochoric heat capacity	108.5 J/K/mol
602.91 K, Fluid (supercritical or subcritical phases), Mass density=214.83 kg/m3, isochoric heat capacity	94.28 J/K/mol
602.91 K, Fluid (supercritical or subcritical phases), Mass density=218.92 kg/m3, isochoric heat capacity	99.09 J/K/mol
602.91 K, Fluid (supercritical or subcritical phases), Mass density=243.98 kg/m3, isochoric heat capacity	106.2 J/K/mol
602.91 K, Fluid (supercritical or subcritical phases), Mass density=311.19 kg/m3, isochoric heat capacity	90.5 J/K/mol
602.91 K, Fluid (supercritical or subcritical phases), Mass density=342.18 kg/m3, isochoric heat capacity	82.9 J/K/mol
602.91 K, Liquid, Isochoric heat capacity	106.2 J/K/mol
602.96 K, Fluid (supercritical or subcritical phases), Mass density=224.53 kg/m3, isochoric heat capacity	111.03 J/K/mol
602.96 K, Fluid (supercritical or subcritical phases), Mass density=230.31 kg/m3, isochoric heat capacity	111.35 J/K/mol
602.96 K, Liquid, Isochoric heat capacity	111.35 J/K/mol and 111.03 J/K/mol
602.97 K, Fluid (supercritical or subcritical phases), Mass density=227.54 kg/m3, isochoric heat capacity	112.45 J/K/mol
602.97 K, Liquid, Isochoric heat capacity	112.45 J/K/mol
602.99 K, Fluid (supercritical or subcritical phases), Mass density=214.83 kg/m3, isochoric heat capacity	91.33 J/K/mol
602.99 K, Fluid (supercritical or subcritical phases), Mass density=224.53 kg/m3, isochoric heat capacity	109.57 J/K/mol
